The values that follow come from article PMC10892818, “An Antiherpesviral Host-Directed Strategy Based on CDK7 Covalently Binding Drugs: Target-Selective, Picomolar-Dose, Cross-Virus Reactivity” (Pharmaceutics, 2024).

The structures appear in SMILES notation. Read-outs that look alike come from different tables or passages of the source. Where only a bound is given, the exact number is not on record here.

One data set deals with HCMV UL97-T409M. The arrangement: method as in PMID 31940472; key: R-high, high-level drug resistance; R-int, intermediate-level drug resistance; R-low, low-level drug resistance; S, drug sensitivity. The note with it: cited from earlier work.
In the next data set the test system is VZV Oka-GFP. Nature of the data set: microbe, parasite or virus in culture. It is filed as cell-based, varicella zoster virus. To be noted: for EC50: Human alphaherpesvirus 3, 96 h. From the text:
The virus recombinants VZV Oka-GFP and rKSHV.219-GFP/RFP were used for the infection of HFFs (virus stock VZV Oka-GFP applied as a cell-bound inoculum as described before) or were continuously passaged in iSLK.219 carrier cells, respectively (Figure 1). The conditions of the GFP/RFP-based assays were adapted to both the 96 well (Figure 1A,B) and 12 well formats, and details including the assessment of antiviral reference drugs are given (Figure 1C,D).
The virus recombinants VZV Oka-GFP and rKSHV.219-GFP/RFP were used for the infection of HFFs (VZV) or were continuously passaged in iSLK.219 carrier cells (KSHV), respectively, and cell viability was determined by NRA performed with uninfected HFFs or uninduced iSLK.219 cells, respectively. (A,B) Schematic depiction of the assay systems performed in a 96 well plate format. […] For the VZV-GFP system, virus stock VZV Oka-GFP was applied as a cell-bound infectious inoculum. After a 90 min period of inoculum adsorption to the cell surfaces, antiviral compounds were added to the culture media at serial dilutions (DMSO served as a solvent control for drug treatment of infected cells, while mock-infected cells served as a negative control). For the KSHV-GFP/RFP system, iSLK.219 cell lytic replication of KSHV (RFP reporter signal) was induced by the addition of 0.05 or 0.5 µg/mL doxycycline (dox) to the culture media. Cultivated dox-induced iSLK.219 cells were treated with antiviral compounds added at serial dilutions (DMSO served as a positive infection solvent control, while dox-untreated mock cells served as a negative control). HFFs or iSLK.219 cells were harvested at 4 d p.i. or 1 d after treatment, respectively, fixed by a 10 min incubation with 10% formalin, washed with PBS, and used for quantitation of the GFP or RFP reporter signal by PicoMD counting (ImageXpress® Pico device, Molecular Devices LLC, San Jose, CA, USA), with data evaluation using CellReporterXpress® software (version 2.9.3.1183, Molecular Devices LLC) as described earlier in [63]. (C) The antiviral activity of the reference drugs was determined with the VZV-GFP system in the 96 well format. EC50 values refer to measurements in quadruplicate, and the mean values ± SD of two experimental replicates are given. (D) The antiviral activity of the reference drugs was determined with the KSHV-GFP/RFP system in the 96 well format. EC50 values refer to measurements in triplicate, and the mean values ± SD are given for each of the two depicted experimental replicates.

In the next data set the test system is HCMV UL97-M460I. The arrangement: method as in PMID 31940472; key: R-high, high-level drug resistance; R-int, intermediate-level drug resistance; R-low, low-level drug resistance; S, drug sensitivity. To be noted: cited from earlier work.
Another data set concerns HCMV UL97-C592G. Also on record: method as in PMID 31940472; key: R-high, high-level drug resistance; R-int, intermediate-level drug resistance; R-low, low-level drug resistance; S, drug sensitivity. The note with it: cited from earlier work.
The next data set concerns HCMV UL97-H411Y. The arrangement: method as in PMID 31940472; key: R-high, high-level drug resistance; R-int, intermediate-level drug resistance; R-low, low-level drug resistance; S, drug sensitivity. The note with it: cited from earlier work.
Data set [1] in a line: Neutral Red uptake assay (NRA), uninfected HFFs. To be noted: human, read-out: CC50 (VZV-GFP system). It counts as cell-based. On the procedure: The cytotoxic level of the compounds was determined by the use of an established quantitation of cell viability (i.e., Neutral Red uptake assay) performed after 3–7 d of compound incubation on uninfected cells (according to the respective duration of the antiviral reporter-based replication assay performed in parallel) as described earlier in [44].

For a further data set, the system named is HCMV UL97-C480F. Also on record: method as in PMID 31940472; key: R-high, high-level drug resistance; R-int, intermediate-level drug resistance; R-low, low-level drug resistance; S, drug sensitivity. To be noted: cited from earlier work.
In the next data set the test system is HCMV UL97-C603W. Also on record: method as in PMID 31940472; key: R-high, high-level drug resistance; R-int, intermediate-level drug resistance; R-low, low-level drug resistance; S, drug sensitivity. To be noted: cited from earlier work.
For the next data set, the system named is HCMV UL97-L397R. Also on record: method as in PMID 31940472; key: R-high, high-level drug resistance; R-int, intermediate-level drug resistance; R-low, low-level drug resistance; S, drug sensitivity. To be noted: cited from earlier work.
The subject of the next data set is HCMV UL97-F342S. Also on record: method as in PMID 31940472; key: R-high, high-level drug resistance; R-int, intermediate-level drug resistance; R-low, low-level drug resistance; S, drug sensitivity. The note with it: (for F342Y); cited from earlier work.
[2] abbreviates: read-out: VZV EC50 (first experimental replicate).
Setting [3] is: read-out: VZV EC50 (second experimental replicate).

As for `Nc1ccn(C[C@@H](CO)OCP(=O)(O)O)c(=O)n1` [CDV, cidofovir], the “Reported phenotype UL97-T409M” value in the data set with HCMV UL97-T409M was “S”. For the same compound, the “SI (VZV-GFP system)” value in the data set on VZV Oka-GFP (96 well format) is reported as more than 323. Moreover, the values for the EC50 in the data set on VZV Oka-GFP (setting [2]) and with VZV Oka-GFP (setting [3]) were 300 ± 100 nM and 300 ± 200 nM, respectively. Besides, the “Reported phenotype UL97-M460I” value in the data set with HCMV UL97-M460I is reported as “S”. In addition, in the data set on HCMV UL97-C592G, the “Reported phenotype UL97-C592G” value is “S”. Moreover, the “Reported phenotype UL97-H411Y” value with HCMV UL97-H411Y was “S”. Besides, the CC50 – broadly, the concentration that lowers cell viability or growth by half – in [1] was more than 100000 nM. Moreover, the “Reported phenotype UL97-C480F” value in the data set with HCMV UL97-C480F is “S”. Besides, the “Reported phenotype UL97-C603W” value in the data set with HCMV UL97-C603W is “S”. The “Reported phenotype UL97-L397R” value in the data set on HCMV UL97-L397R is recorded as “S”. Besides, the “Reported phenotype UL97-F342S” value in the data set with HCMV UL97-F342S is given as “S”.
`Nc1nc(O)c2ncn(COC(CO)CO)c2n1` [GCV, ganciclovir]: in the data set on HCMV UL97-T409M, the “Reported phenotype UL97-T409M” value was “R-low”. Further, the figures for the EC50 in the data set with VZV Oka-GFP (setting [2]) and in the data set with VZV Oka-GFP (setting [3]) were 1000 ± 800 nM and 2900 ± 2700 nM, respectively. In addition, the “Reported phenotype UL97-M460I” value with HCMV UL97-M460I is given as “R-high”. Besides, the “Reported phenotype UL97-C592G” value in the data set with HCMV UL97-C592G is recorded as “R-int”. In addition, in the data set with HCMV UL97-H411Y, the “Reported phenotype UL97-H411Y” value is given as “R-low”. The CC50 in data set [1] is more than 100000 nM. Further, the “Reported phenotype UL97-C480F” value in the data set on HCMV UL97-C480F is on record as “R-int”. Further, the “Reported phenotype UL97-C603W” value with HCMV UL97-C603W is “R-high”. In addition, in the data set with HCMV UL97-L397R, the “Reported phenotype UL97-L397R” value was “S”. For the same compound, the “Reported phenotype UL97-F342S” value with HCMV UL97-F342S is “R-high”.
